From article PMC6934184, “Selective DNA-PKcs inhibition extends the therapeutic index of localized radiotherapy and chemotherapy” (The Journal of Clinical Investigation, 2019) come the findings set out here.

The target in this test is T1, ABL1 E255K (Homo sapiens, UniProt P00519, E255K).
T1 construct: purchased Thermo Fisher Scientific (Life Technologies) SelectScreen
In words: SelectScreen Z'LYTE. It counts as biochemical. The method in brief: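 SelectScreen broad panel; activity (Z'LYTE, Adapta) plus binding formats. ATP: Km app for CSF1R Z'LYTE; 10 for CAMK1 Adapta. Readout = % per kinase.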

T1 sequence (P00519 whole entry E255K): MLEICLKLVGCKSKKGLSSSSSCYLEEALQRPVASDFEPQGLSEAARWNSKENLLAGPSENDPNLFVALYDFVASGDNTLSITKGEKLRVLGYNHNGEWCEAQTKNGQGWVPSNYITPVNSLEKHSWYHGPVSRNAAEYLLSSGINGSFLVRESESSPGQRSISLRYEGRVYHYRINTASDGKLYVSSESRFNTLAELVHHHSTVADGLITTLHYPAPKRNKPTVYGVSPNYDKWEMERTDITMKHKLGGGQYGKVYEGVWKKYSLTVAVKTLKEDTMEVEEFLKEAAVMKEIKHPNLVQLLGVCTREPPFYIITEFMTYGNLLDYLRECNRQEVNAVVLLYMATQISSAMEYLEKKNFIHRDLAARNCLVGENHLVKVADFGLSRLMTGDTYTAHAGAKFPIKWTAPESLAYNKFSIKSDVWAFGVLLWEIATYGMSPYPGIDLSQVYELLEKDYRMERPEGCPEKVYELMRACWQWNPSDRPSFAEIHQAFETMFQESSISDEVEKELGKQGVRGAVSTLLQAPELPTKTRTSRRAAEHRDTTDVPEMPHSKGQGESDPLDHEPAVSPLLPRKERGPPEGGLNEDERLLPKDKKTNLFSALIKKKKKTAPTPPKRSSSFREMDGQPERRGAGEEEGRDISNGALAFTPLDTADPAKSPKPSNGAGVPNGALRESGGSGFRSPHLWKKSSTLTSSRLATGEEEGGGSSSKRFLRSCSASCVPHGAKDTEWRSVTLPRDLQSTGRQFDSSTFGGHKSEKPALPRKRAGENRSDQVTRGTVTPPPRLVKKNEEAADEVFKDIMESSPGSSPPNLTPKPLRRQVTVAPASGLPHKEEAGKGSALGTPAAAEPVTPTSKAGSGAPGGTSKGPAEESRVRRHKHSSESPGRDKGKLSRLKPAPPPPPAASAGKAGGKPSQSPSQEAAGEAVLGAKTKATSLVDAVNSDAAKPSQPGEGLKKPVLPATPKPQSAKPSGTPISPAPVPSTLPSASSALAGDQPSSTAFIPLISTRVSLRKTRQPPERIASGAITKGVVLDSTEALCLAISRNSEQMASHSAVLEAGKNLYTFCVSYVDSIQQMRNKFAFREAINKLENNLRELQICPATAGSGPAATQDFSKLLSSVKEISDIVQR

A word on the inhibition: it is the change of the read-out against control, counted positive when it falls. Regarding `CN(C(=O)CN1CCOCC1)c1ccc2sc3c(-c4cccc5c(=O)cc(N6CC7CCC(C6)O7)oc45)cccc3c2c1` [NU5455], the inhibition at 1 µM was -6.6%.
